# Like-named read-outs stand apart in the source and are kept apart here.
# Key:
# M. tuberculosis H37Rv = assay: Dose-response growth inhibition (broth microdilution); assay type: cell-based; settings: Mycobacterium tuberculosis, 168 h
# M. abscessus Bamboo [1] = assay: as above; assay type: cell-based, Mycobacterium abscessus; settings: Mycobacteroides abscessus
# M. avium 11 [2] = assay: as above; assay type: cell-based, Mycobacterium avium
# M. abscessus Bamboo [3] = assay: Bactericidal assay (CFU, fold kill); assay type: cell-based, Mycobacterium abscessus; settings: for Fold kill at MIC90: 10^7 CFU/mL exposed to MIC90 for 3 days, CFU vs starting inoculum
# M. avium 11 [4] = assay: Bactericidal assay (CFU, fold kill); assay type: cell-based, Mycobacterium avium; settings: 10^7 CFU/mL exposed to MIC90 for 4 days, CFU vs starting inoculum
# [5] = rat, cited from earlier work; for Cmax: BLQ = < 1 ng/mL
# M. tuberculosis = tested on: M. tuberculosis; design: method as in http://www.pathogenbox.org/; settings: as reported by MMV, ref http://www.pathogenbox.org/; cited from earlier work
# [6] = M. tuberculosis H37Rv, 7 days, concentration that inhibits 50% of growth, read-out: MIC50
# [7] = M. tuberculosis H37Rv, 7 days, concentration that inhibits 90% of growth, read-out: MIC90
# [8] = 72 h, M. abscessus Bamboo, 3 days, read-out: MIC50
# [9] = 72 h, M. abscessus Bamboo, 3 days, read-out: MIC90
# [10] = Mycobacterium avium, 96 h, M. avium 11, 4 days, read-out: MIC50
# [11] = Mycobacterium avium, 96 h, M. avium 11, 4 days, read-out: MIC90
# [12] = IV 1 mg/kg, mean n = 2, ref http://www.pathogenbox.org/
# [13] = PO 5 mg/kg, mean n = 2, ref http://www.pathogenbox.org/
Compound,MIC50 (M. tuberculosis H37Rv; [6]),MIC90 (M. tuberculosis H37Rv; [7]),MIC50 (M. abscessus Bamboo [1]; [8]),MIC90 (M. abscessus Bamboo [1]; [9]),MIC50 (M. avium 11 [2]; [10]),MIC90 (M. avium 11 [2]; [11]),Fold kill at MIC90 (M. abscessus Bamboo [3]),Fold kill at MIC90 (M. avium 11 [4]),"AUCinf ([5]; in vivo, iv, 1 mg/kg)","AUClast ([5]; in vivo, iv, 1 mg/kg)","C0 ([5]; in vivo, iv, 1 mg/kg)","Cl ([5]; in vivo, iv, 1 mg/kg)","AUCinf ([5]; in vivo, po, 5 mg/kg)","AUClast ([5]; in vivo, po, 5 mg/kg)","tmax ([5]; in vivo, po, 5 mg/kg)",%F ([5]; in vivo),Reported MIC (M. tuberculosis),also measured
COc1ccc(OC)c(NCc2ccc3nc(N)nc(N)c3c2Cl)c1 [MMV675968],< 0.2 µM,4 µM,10.5 µM,35 µM,0.2 µM,3 µM,"NK (NK, “no kill,” i.e., CFU reduction < 10-fold at MIC90)","NK (NK, “no kill,” i.e., CFU reduction < 10-fold at MIC90)",0.9 µg·h/mL,0.897 µg·h/mL,1.08 µg/mL,1.12 L/h/kg,0.532 µg·h/mL,0.504 µg·h/mL,1 h,11%,–,–
Cc1cc(C)c2cc(C(=O)NC3CCCCCCC3)[nH]c2c1 [MMV687146],< 0.2 µM,< 0.2 µM,0.8 µM,2 µM,3 µM,9 µM,100 fold,"NK (NK, “no kill,” i.e., CFU reduction < 10-fold at MIC90)",0.935 µg·h/mL,0.798 µg·h/mL,2.27 µg/mL,1.09 L/h/kg,0.483 µg·h/mL,0.456 µg·h/mL,0.75 h,11%,<0.024 µM,–
CCCCOC(=O)Nc1cc2nc(C3CCCCC3)[nH]c2cc1N1CCCC1 [MMV687730],< 0.2 µM,< 0.2 µM,4 µM,8.5 µM,5 µM,22 µM,10 fold,"NK (NK, “no kill,” i.e., CFU reduction < 10-fold at MIC90)",–,–,–,–,–,–,–,–,0.05 µM,"AUCinf [5, 12]: 0.125 µg·h/mL; AUClast [5, 12]: 0.108 µg·h/mL; C0 [5, 12]: 0.444 µg/mL; Cl [5, 12]: 9.96 L/h/kg; Vss [5, 12]: 15.9 L/kg; t1/2 [5, 12]: 3.34 h; Cmax [5, 13]: NC (BLQ at all time points)"
CN1CCN(CCCOc2ncc(Nc3ncc(-c4ccc(C(F)(F)F)c(F)c4)nc3C(N)=O)cn2)CC1 [MMV687812],< 0.2 µM,2.2 µM,6 µM,> 50 µM,25 µM,> 50 µM,–,"NK (NK, “no kill,” i.e., CFU reduction < 10-fold at MIC90)",0.801 µg·h/mL,0.381 µg·h/mL,0.265 µg/mL,1.25 L/h/kg,2.45 µg·h/mL,0.962 µg·h/mL,7 h,50%,1.2 µM,"MIC90 (M. abscessus Bamboo [1]; read-out: Concentration at which 80% growth inhibition was achieved (printed in MIC90 column)): 12 µM; Fold kill (Fold kill at MIC90) (M. abscessus Bamboo [3]; at 12 μM (80% growth inhibition), MIC90 not reached): NK^∧ (NK, “no kill,” i.e., CFU reduction < 10-fold at MIC90)"
"CC(=O)NC[C@H]1CN(c2ccc(-c3ccc(CNCc4cnn[nH]4)cc3)c(F)c2)C(=O)O1 [MMV688327, radezolid, reference compound]",0.5 µM,2 µM,3.8 µM,13 µM,4 µM,35 µM,"NK (NK, “no kill,” i.e., CFU reduction < 10-fold at MIC90)","NK (NK, “no kill,” i.e., CFU reduction < 10-fold at MIC90)",–,–,–,–,–,–,–,–,0.3 µM,–
CC(=O)NCC1CN(c2ccc(-c3ccc(CO)cc3)c(F)c2)C(=O)O1 (stereo not shown) [MMV688508],< 0.2 µM,0.3 µM,2.2 µM,12 µM,0.6 µM,8 µM,"NK (NK, “no kill,” i.e., CFU reduction < 10-fold at MIC90)","NK (NK, “no kill,” i.e., CFU reduction < 10-fold at MIC90)",0.156 µg·h/mL,0.156 µg·h/mL,1.31 µg/mL,16.8 L/h/kg,–,0.00145 µg·h/mL,0.25 h,<1%,0.4 µM,–
"CC(=O)NC[C@H]1CN(c2ccc(N3CCSCC3)c(F)c2)C(=O)O1 [MMV688756, sutezolid, reference compound]",< 0.2 µM,1.2 µM,4.2 µM,25 µM,0.4 µM,4 µM,"NK (NK, “no kill,” i.e., CFU reduction < 10-fold at MIC90)","NK (NK, “no kill,” i.e., CFU reduction < 10-fold at MIC90)",–,–,–,–,–,–,–,–,1.2 µM,–
Cc1ccccc1CN1CCC(O)(c2ccc(Cl)c(C(F)(F)F)c2)CC1 [MMV688846],–,–,–,–,–,–,10 fold,–,–,–,–,–,–,–,–,–,0.4 µM,"MIC50 (M. tuberculosis H37Rv; H37RV): 0.2 µM; MIC90 (M. tuberculosis H37Rv; H37RV): 0.6 µM; MIC50 (M. abscessus Bamboo [1]; 72 h): 0.7 µM; MIC90 (M. abscessus Bamboo [1]; 72 h): 1.5 µM; MIC50 (M. avium 11 [2]; Mycobacterium avium, 11, 96 h): 20 µM; IC90 (M. avium 11 [2]; Mycobacterium avium, 11, 96 h, read-out: MIC90): > 50 µM; AUCinf [5, 12]: 0.464 µg·h/mL; AUClast [5, 12]: 0.423 µg·h/mL; C0 [5, 12]: 0.563 µg/mL; Cl [5, 12]: 2.21 L/h/kg; Vss [5, 12]: 14.4 L/kg; t1/2 [5, 12]: 9.78 h; %F ([5]; PO 5 mg/kg vs IV 1 mg/kg, ref http://www.pathogenbox.org/): <1%; Cmax [5, 13]: 0.00319 µg/mL; AUCinf [5, 13]: 0.0275 µg·h/mL; AUClast [5, 13]: 0.0181 µg·h/mL; t1/2 [5, 13]: 4.6 h; tmax [5, 13]: 1.5 h"
